Source: patent publication US20200308192A1, “NOVEL THIAZOLO[5,4-D]PYRIMIDINE DERIVATIVES AS INVERSE AGONISTS OF A2A ADENOSINE RECEPTORS” (Universita degli Studi di Ferrara, priority 2016, published 2020)
Where two headings read alike, the source gives them in different places.

Columns and labels:
[1] = test system: breast cancer cells MRMT-1; test: Cell proliferation assay (DELFIA BrdU); type: cell-based; details: 48 hours; for Effect on CGS 21680-induced proliferation of cancer cells: MRMT-1, compound 100 nM pre-treatment, CGS 21680 100 nM
Source text: For the experiments of cellular proliferation, the DELFIA® kit was used and a multimode plate reader Ensight® from PerkinElmer. The DELFIA® (dissociation-enhanced lanthanide fluorescence immunoassay) assay is based on Time-Resolved Fluorescence (TRF) and on the incorporation of the 5-bromo-2-deoxyuridine (BrdU) in the DNA filaments recently synthesised by the proliferating cells seeded on microplates. The incorporated BrdU is detected by using a monoclonal antibody conjugated with europium, a long-lived chelated lanthanide, and the fluorescence measured is proportional to the synthesis of DNA in the cells population present in each well. The MRMT-1 cells, breast cancer cells, were pre-treated with some of the antagonists under evaluation at the concentration of 100 nM (compounds 1, 5, 6, 7, 10 of the present invention) for 30 minutes, then stimulated with CGS 21680 100 nM and after 30 minutes the solution of BrdU (10 μl/well) was added. At the end of the incubation period of 48 hours 100 μl/well of Anti-BrdU-Eu (0.5 μg/ml) were added and the cells were incubated for 120 minutes at room temperature. After 4 washings, 200 μl of DELFIA® stimulator were added at room temperature for 15 minutes and the Eu-fluorescence was detected by means of the Ensight® reader from Perkin Elmer (Perkin Elmer, Milan, Italy).

[2] = molecular target: T1, human adenosine A1 receptor (Homo sapiens, UniProt P30542); test: Competition binding, [3H]-DPCPX, hA1 CHO membranes; details: read-out: Receptor hA1 Ki, mean ± SEM
T1 sequence (P30542 1-326): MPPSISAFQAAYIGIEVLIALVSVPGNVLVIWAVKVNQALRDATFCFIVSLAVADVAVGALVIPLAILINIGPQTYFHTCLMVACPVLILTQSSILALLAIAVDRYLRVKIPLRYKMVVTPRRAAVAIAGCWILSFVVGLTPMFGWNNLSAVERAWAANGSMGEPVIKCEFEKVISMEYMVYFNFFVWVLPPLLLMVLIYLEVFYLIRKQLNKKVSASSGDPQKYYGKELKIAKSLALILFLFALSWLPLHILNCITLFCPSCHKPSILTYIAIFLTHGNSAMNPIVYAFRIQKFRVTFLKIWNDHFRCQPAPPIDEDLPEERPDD

[3] = test system: Female CD1 mice; test: Warm-water tail immersion test; type: in vivo; details: intraperitoneal
Experimental: (§1) Female CD1 mice (22-24 g) were obtained from Charles River (Milano, Italia). The animals were kept under standard environmental temperature conditions (22±2° C.) and under moisture-controlled conditions with 12 hours light/dark cycle and food and water ad libitum. The animals were acclimated to the laboratory settings for at least 1 hour before testing and were used only once throughout the experiments. All the procedures used in the present study were carried out in accordance with the European Communities Council Directives (86/609/EEC) and the National Laws and Policies (D.L.116/92) after authorization from the Italian Ministry for Health (4/2014-B). In addition, the experimental procedures were in agreement with the current guidelines for the care of laboratory animals and the ethical guidelines for investigations of experimental pain in conscious animals (Couto M. Methods Mol Biol 2011; 770:579-599).
The warm-water tail immersion assay was performed using a water thermostated bath at a temperature maintained at 52° C. The compounds under evaluation were dissolved in DMSO and then diluted in saline solution. The carrier consists of saline solution and 5% of DMSO. Before intraperitoneally injecting the compound, the natural time of response of the mice was determined and the distal part of the tail was then immersed in the thermostated bath. The latency in responding to the heat stimulus with a vigorous flexion of the tail was measured by means of a manual stopwatch. A 20 seconds maximum cut-off time was imposed to prevent tissue damage. The latency of the tail withdrawal was then tested 15 minutes after injection of the compound.
(§2) The statistical analysis of the data was performed using ANOVA followed by Dunnett's test. […] KH and KL were obtained by using a two sites binding model and Graph PAD Prism (San Diego, Calif., USA). The values of IC50 obtained in the cAMP assays were calculated by non-linear regression analysis using the equation for a sigmoid concentration-response curve. All data are expressed as the mean±SEM of four independent experiments each performed in duplicate for in vitro assays and n=8-10 mice/group for in vivo assays.

[4] = molecular target: T2, human adenosine A3 receptor (Homo sapiens, UniProt P0DMS8); test: Competition binding, [125I]-ABMECA, hA3 CHO membranes; details: mean ± SEM
T2 construct: expressed in transfected cells; host or cells: CHO cells (membrane preparation)
T2 sequence (P0DMS8 1-318): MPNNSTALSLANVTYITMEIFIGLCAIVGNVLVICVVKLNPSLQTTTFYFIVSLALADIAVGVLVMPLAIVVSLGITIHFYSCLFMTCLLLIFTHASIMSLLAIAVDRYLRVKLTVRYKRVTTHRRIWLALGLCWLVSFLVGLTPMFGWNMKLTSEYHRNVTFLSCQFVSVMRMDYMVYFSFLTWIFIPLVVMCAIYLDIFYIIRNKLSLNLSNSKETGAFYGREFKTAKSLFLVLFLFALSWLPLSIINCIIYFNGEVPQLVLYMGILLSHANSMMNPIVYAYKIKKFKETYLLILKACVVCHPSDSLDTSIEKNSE

[5] = test system: Female CD1 mice; test: Writhing test (acetic acid-induced abdominal constrictions); type: in vivo; details: for ED50: Mus musculus, ip, 15 minutes before acetic acid; for Dose-response curve, Writhing Test: P<0.001, one-way ANOVA
Experimental: as §1
The acetic acid-induced writhing response was performed after intraperitoneal injection of 10 ml/Kg of 0.6% acetic acid solution. The response to the abdominal constrictions induced by acetic acid was evaluated after the intraperitoneal injection of 10 ml/kg of a 0.6% solution of acetic acid. The compounds under evaluation were dissolved in DMSO and then diluted in a saline solution. The carrier consists of saline solution and 5% of DMSO. A writhe is indicated by stretching of the abdomen followed by the extension of the hind limbs. The animals (8 mice per group) were placed singly in a glass cylinder and the number of writhing episodes of abdominal contractions was counted in a 30 minutes period. The compounds were administered intraperitoneally 15 minutes before injection of acetic acid solution.
as §2

[6] = molecular target: T3, human adenosine A2A receptor (Homo sapiens, UniProt P29274); test: Competition binding, [3H]-ZM 241385, hA2A CHO membranes
[7] = molecular target: T4, human adenosine A2B receptor (Homo sapiens, UniProt P29275); test: cAMP assay, inhibition of NECA-stimulated cAMP levels in hA2B CHO cells; details: read-out: Receptor hA2B IC50; cAMP stimulated by NECA (100 nM); mean ± SEM
T4 sequence (P29275 1-332): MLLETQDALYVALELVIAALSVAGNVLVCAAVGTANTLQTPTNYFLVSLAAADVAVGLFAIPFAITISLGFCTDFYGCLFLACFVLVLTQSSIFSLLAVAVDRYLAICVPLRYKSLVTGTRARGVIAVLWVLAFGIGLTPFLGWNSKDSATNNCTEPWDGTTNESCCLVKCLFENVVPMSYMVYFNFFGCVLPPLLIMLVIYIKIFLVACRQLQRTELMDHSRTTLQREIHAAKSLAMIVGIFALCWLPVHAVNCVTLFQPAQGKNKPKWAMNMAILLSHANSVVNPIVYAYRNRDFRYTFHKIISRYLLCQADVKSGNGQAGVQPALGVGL

[8] = molecular target: T3, human adenosine A2A receptor; test: cAMP assay in hA2A CHO cells, basal or with CGS 21680; type: cell-based; set-up: expressed in transfected cells; host or cells: CHO cells; details: for IC50: mean ± SEM
Experimental: For the membranes preparation the culture medium was removed, and the cells were washed with a saline phosphate-buffered solution collected with hypotonic buffer (5 mM Tris HCl, 1 mM EDTA, pH 7.4).
CHO cells transfected with the adenosine receptors were washed with a phosphate-buffered saline solution, detached with trypsin and centrifuged for 10 minutes at 200 g. […] The reaction was terminated by addition of cold 6% trichloroacetic acid (TCA). The TCA suspension was centrifuged at 2000 g for 10 minutes at 4° C. and the supernatant was extracted four times with diethyl ether with water. The final aqueous solution was tested for the cAMP levels by a competition protein binding assay with a cAMP-binding protein. The standard samples of cAMP (0-10 pmoli) were added to each test tube containing the incubation buffer (trizma base 0.1 M, aminophylline 8.0 mM, 2 mercaptoethanol 6.0 mM, pH 7.4) and [^3H]-cAMP. The binding protein previously prepared from beef adrenals, was added to the samples previously incubated at 4° C. for 150 minutes, and after the addition of charcoal were centrifuged at 2000 g for 10 min.
as §2

[9] = CGS 21680 (10 nM), read-out: IC50 cAMP, in presence of CGS 21680
[10] = CGS 21680 (10 nM), read-out: Emax cAMP, in presence of CGS 21680
[11] = basal cAMP, read-out: IC50 cAMP, in absence of CGS 21680
[12] = efficacy versus basal cAMP production, read-out: Emax cAMP, in absence of CGS 21680

T3 sequence (P29274 whole entry): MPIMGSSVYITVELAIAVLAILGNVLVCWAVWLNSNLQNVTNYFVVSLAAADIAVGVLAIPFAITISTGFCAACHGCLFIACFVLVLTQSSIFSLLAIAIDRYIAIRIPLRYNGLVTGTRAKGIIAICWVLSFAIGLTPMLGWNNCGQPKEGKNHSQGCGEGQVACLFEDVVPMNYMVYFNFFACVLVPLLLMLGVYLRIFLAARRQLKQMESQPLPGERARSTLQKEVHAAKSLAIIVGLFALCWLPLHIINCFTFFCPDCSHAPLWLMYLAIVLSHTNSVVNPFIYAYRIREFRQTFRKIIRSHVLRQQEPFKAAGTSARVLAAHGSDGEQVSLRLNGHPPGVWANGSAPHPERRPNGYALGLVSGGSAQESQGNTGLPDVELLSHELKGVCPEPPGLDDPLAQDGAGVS

Row | Compound | Ki [2] [nM] | Ki [4] [nM] | Ki [6] [nM] | IC50 [7] [nM] | IC50 [8, 9] [nM] | Emax [8, 10] [%] | IC50 [8, 11] [nM] | Emax [8, 12] [%] | Effect on proliferation of cancer cells ([1]; MRMT-1, CGS 21680 100 nM) | ED50 ([3]; Mus musculus, ip, 0.25 h, 52° C., 15 minutes after injection) [mg/kg] | Anti-nociceptive activity, tail immersion test [3] | Minimum effective dose, tail immersion test [3] [mg/kg] | ED50 ([5]; intraperitoneal) [mg/kg] | Dose-response curve, Writhing Test [5] | ED50 times lower than ZM 241385, Writhing Test ([5]; intraperitoneal) | ED50 times lower than morphine, Writhing Test ([5]; intraperitoneal) [times] | Effect on CGS 21680-induced proliferation of cancer cells [1]
1 | CCNC(=O)[C@H]1O[C@@H](n2cnc3c(N)nc(NCCc4ccc(CCC(=O)O)cc4)nc32)[C@H](O)[C@@H]1O [CGS 21680, reference compound] | – | – | – | – | – | – | – | – | able to increase the proliferation of the cancer cells | – | – | – | – | – | – | – | –
2 | COc1ccccc1CNc1nc(N)c2nc(-c3ccco3)sc2n1 [Compound 1, 2-(furan-2-yl)-N^5-(2-methoxybenzyl)[1,3]thiazolo[5,4-d]pyrimidin-5,7-diamine] | 3.54 ± 0.32 | 36 ± 3 | 6.45 ± 0.57 | 313 ± 29 | – | – | – | – | – | 0.134 ± 0.011 | highest analgesic activity | 0.01 | 0.0328 ± 0.0021 | dose-dependent effect | approximately 42 times | 3.75 | –
3 | Nc1nc(NCc2ccco2)nc2sc(-c3ccco3)nc12 [Compound 5, 2-(furan-2-yl)-N^5-(furan-2-ylmethyl)[1,3]thiazolo[5,4-d]pyrimidin-5,7-diamine] | 38 ± 4 | 4.72 ± 0.38 | 1.73 ± 0.15 | 82 ± 9 | 0.04 ± 0.004 | 133 ± 13 | 0.0016 ± 0.0002 | 64 | – | – | – | – | – | – | – | – | able to reduce the proliferation of cancer cells
4 | Nc1nc(NCc2cccs2)nc2sc(-c3ccco3)nc12 [Compound 6, 2-(furan-2-yl)-N^5-(thiophen-2-ylmethyl)[1,3]thiazolo[5,4-d]pyrimidin-5,7-diamine] | 12.5 ± 1.1 | 6.43 ± 8 | 3.82 ± 0.31 | 75 ± 8 | 0.036 ± 0.003 | 132 ± 12 | 0.0017 ± 0.0002 | 61 | – | – | – | – | – | – | – | – | able to reduce the proliferation of cancer cells
5 | Nc1nc(NCc2cccnc2)nc2sc(-c3ccco3)nc12 [Compound 7, 2-(furan-2-yl)-N^5-(pyridin-3-ylmethyl)[1,3]thiazolo[5,4-d]pyrimidin-5,7-diamine] | 7.12 ± 0.65 | 18.2 ± 1.7 | 0.68 ± 0.05 | 109 ± 11 | 0.059 ± 0.006 | 126 ± 12 | 0.011 ± 0.001 | 61 | – | – | – | – | – | – | – | – | able to reduce the proliferation of cancer cells

More lines, main results first:

Row | Ki [2] [nM] | Ki [4] [nM] | Ki [6] [nM] | IC50 [7] [nM] | IC50 [8, 9] [nM] | Emax [8, 10] [%] | IC50 [8, 11] [nM] | Emax [8, 12] [%] | Compound | Effect on proliferation of cancer cells ([1]; MRMT-1, CGS 21680 100 nM) | ED50 ([3]; Mus musculus, ip, 0.25 h, 52° C., 15 minutes after injection) [mg/kg] | Anti-nociceptive activity, tail immersion test [3] | Minimum effective dose, tail immersion test [3] [mg/kg] | ED50 ([5]; intraperitoneal) [mg/kg] | Dose-response curve, Writhing Test [5] | ED50 times lower than ZM 241385, Writhing Test ([5]; intraperitoneal) | ED50 times lower than morphine, Writhing Test ([5]; intraperitoneal) [times] | Effect on CGS 21680-induced proliferation of cancer cells [1]
6 | 4.92 ± 0.37 | 65 ± 6 | 18 ± 2 | 112 ± 11 | 0.045 ± 0.004 | 138 ± 13 | 0.0064 ± 0.0005 | 62 | Nc1nc(NCCc2cccs2)nc2sc(-c3ccco3)nc12 [Compound 10, 2-(furan-2-yl)-N^5-(2-(thiophen-2-yl)ethyl)[1,3]thiazolo[5,4-d]pyrimidin-5,7-diamine] | – | – | – | – | – | – | – | – | able to reduce the proliferation of cancer cells
7 | – | 683 ± 64 | – | – | – | – | – | – | Nc1nc(NCCc2ccc(O)cc2)nc2nc(-c3ccco3)nn12 [ZM 241385, reference compound] | – | – | no effect up to 10 mg/kg | – | 1.37 ± 0.108 | dose-dependent effect | – | – | –
